Molecular target: 3-phosphoinositide-dependent protein kinase 1 (Homo sapiens) (UniProt O15530)
Experiment: Inhibition of PDK1 by scintillation proximity assay

IC50 [µM] | Structure (SMILES)
> 10 | CC(C)(C)C(=O)N1Cc2c(n[nH]c2NC(=O)c2cc(F)cc(F)c2)C1(C)C [N-[5-(2,2-Dimethylpropanoyl)-6,6-dimethyl-1,4,5,6-tetrahydropyrrolo[3,4-c]pyrazol-3-yl]-3,5-difluorobenzamide]
> 10 | CC(C)CC(=O)Nc1[nH]nc2c1CN(C(=O)C1CCN(C)CC1)C2(C)C
